The source of these data is ChEMBL document CHEMBL2021890, “A new class of prolylcarboxypeptidase inhibitors, part 1: discovery and evaluation” (Bioorg Med Chem Lett, 2012).

Series [1] is described as follows: Volume of distribution in mouse at 0.5 mg/kg, iv and 1 mg/kg, po. In kind it is ADME, organism-based. The conditions noted are these: in vivo.
Series [2] deals with Mus musculus. Put plainly: Dose normalized AUC in mouse at 1 mg/kg, po. Also noted: dose 1 mg/kg, route oral. In kind it is ADME, organism-based. As to conditions: in vivo.
Series [3] can be described thus: Oral bioavailability in mouse at 1 mg/kg. In kind it is ADME, organism-based. The conditions noted are these: in vivo.
Series [4] in a line: Metabolic stability in mouse liver microsomes after 30 mins by LC/MS analysis. In kind it is ADME, Microsome. As to conditions: read-out: Stability. For orientation: Liver microsomes are a subcellular fraction often used to study metabolism.
Series [5] in a line: Plasma protein binding in 10% mouse plasma assessed as percentage unbound. In kind it is ADME, cell-free.
Series [6] in a line: Metabolic stability in human liver microsomes after 30 mins by LC/MS analysis. In kind it is ADME, Microsome. The conditions noted are these: read-out: Stability.
The nature of series [7]: Plasma protein binding in 10% human plasma assessed as percentage unbound. Format: ADME, cell-free.
The target of series [8] is T1, Lysosomal Pro-X carboxypeptidase (Mus musculus, UniProt Q7TMR0).
T1 sequence (Q7TMR0 whole entry): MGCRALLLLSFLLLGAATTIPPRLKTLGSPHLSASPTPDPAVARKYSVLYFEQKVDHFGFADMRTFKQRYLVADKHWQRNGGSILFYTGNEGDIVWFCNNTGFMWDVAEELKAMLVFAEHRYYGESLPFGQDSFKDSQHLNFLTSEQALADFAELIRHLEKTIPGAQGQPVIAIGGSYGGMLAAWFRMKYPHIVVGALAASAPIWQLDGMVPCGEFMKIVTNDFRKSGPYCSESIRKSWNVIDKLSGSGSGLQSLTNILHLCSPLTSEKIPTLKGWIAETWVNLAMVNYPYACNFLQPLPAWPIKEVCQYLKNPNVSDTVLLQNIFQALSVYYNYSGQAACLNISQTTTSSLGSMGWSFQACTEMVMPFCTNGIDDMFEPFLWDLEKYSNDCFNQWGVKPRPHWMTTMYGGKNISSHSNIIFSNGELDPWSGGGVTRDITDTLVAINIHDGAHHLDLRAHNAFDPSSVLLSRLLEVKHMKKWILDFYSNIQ
Put plainly: Inhibition of mouse PrCP.

Series [9] can be described thus: Half life in mouse at 0.5 mg/kg, iv and 1 mg/kg, po. As to conditions: in vivo. Format: ADME, organism-based.
Series [10] can be described thus: Clearance in mouse at 0.5 mg/kg, iv and 1 mg/kg, po. In kind it is ADME, organism-based. As to conditions: in vivo.
The target in series [11] is Mus musculus. Put plainly: Ex-vivo inhibition of PrCP in heat inactivated 100% plasma of po dosed mouse by FRET analysis. In kind it is functional, organism-based.
Series [12] deals with Mus musculus. The experiment in a line: Ex-vivo inhibition of po dosed mouse PrCP in the absence of plasma by FRET analysis. In kind it is functional, organism-based.
Series [13] has as its target Mus musculus. Put plainly: Ex-vivo inhibition of PrCP in heat inactivated 25% plasma of po dosed mouse by FRET analysis. Format: functional, organism-based.

A value given as a limit tells only on which side of the number the result lay.

What is called bioavailability is the share of a dose that reaches the circulation, judged against a reference dose that is usually intravenous. The low end stands for little systemic uptake, the high end for much systemic uptake. In general, fraction unbound refers to free concentration divided by total concentration. The term IC50 denotes the concentration that inhibits the measured activity by half. A higher IC50 goes with lower potency. One may read the half-life as the time in which the quantity being followed falls by half. For the compound `Cc1cc(C2CCN(C(=O)[C@@H]3CN(C(C)(C)C)C[C@H]3c3ccc(F)cc3F)CC2)n(-c2ccc(C)c(Cl)c2)n1`, in [1], the Vd was 24 L/kg. In addition, the AUC/dose in series [2] stood at 0.01 µM·kg·h/mg. Besides, the bioavailability in series [3] turned out to be 5.5%. In addition, the remaining at 0.5 h in series [4] is 1%; in [6], below 1%. Moreover, the fraction unbound in [5] is 0.04; in series [7], 0.05. For the same compound, in series [8], it took 1.1 nM to reach half-maximal inhibition (IC50). Besides, the half-life in series [9] is 2.1 h. Besides, in series [10], the clearance was 165 mL/min/kg.
For `Cc1nc(C2CCN(C(=O)[C@@H]3CNC[C@H]3c3ccc(F)cc3F)CC2)n(-c2ccc(Cl)cc2)n1`, the remaining at 0.5 h in series [4] came out at 82%; in series [6] it was 53%. Also, the fraction unbound amounted to 0.07 in series [5] and 0.12 in [7]. In series [8], half-maximal inhibition (IC50) required 194 nM.
Turning to `Cc1cc(C2CCN(C(=O)[C@@H]3CN(C(C)(C)C)C[C@H]3c3ccc(F)cc3F)CC2)n(-c2ccc(F)cc2)n1`, in series [8], the midpoint of inhibition, the IC50, lay at 30 nM.
The compound `Cc1cc(C2CCN(C(=O)[C@@H]3CN(C(C)(C)C)C[C@H]3c3ccc(F)cc3F)CC2)n(-c2ccc(Cl)cc2C)n1` registered a Vd in [1] of 17 L/kg. Besides, the AUC/dose in [2] worked out at 0.17 µM·kg·h/mg. The compound further displayed a bioavailability in series [3] of 37%. Besides, the IC50 in series [8] stood at 2.3 nM. This compound had a half-life in series [9] of 3.1 h. This compound showed a clearance in [10] of 65 mL/min/kg.
With `Cc1nc(C2CCN(C(=O)[C@@H]3CNC[C@H]3c3ccc(F)cc3F)CC2)n(-c2ccc(F)c(Cl)c2)n1`, the remaining at 0.5 h in series [4] is 57%; in series [6] it was 49%. This compound also had an IC50 in series [8] of 32 nM.
As for `Cc1nc(C2CCN(C(=O)[C@@H]3CN(C(C)(C)C)C[C@H]3c3ccc(F)cc3F)CC2)n(-c2ccc(Cl)cc2)n1`, the Vd in series [1] amounted to 14 L/kg. Also, the AUC/dose in [2] was 0.16 µM·kg·h/mg. For the same compound, the bioavailability in [3] came out at 48%. For the same compound, the remaining at 0.5 h in series [4] turned out to be 46%; in series [6], 35%. The fraction unbound in [5] stood at 0.49; in series [7], 0.25. The compound also yielded an IC50 in series [8] of 26 nM. In series [9], this compound had a half-life of 1.9 h. For the same compound, the clearance in series [10] is 96 mL/min/kg.
For the compound `CC(C)(C)N1C[C@@H](C(=O)N2CCC(c3nnnn3-c3ccc(Cl)cc3)CC2)[C@H](c2ccc(F)cc2F)C1`, the Vd in [1] worked out at 17 L/kg. The AUC/dose in series [2] came out at 0.01 µM·kg·h/mg. In series [3], this compound gave a bioavailability of 6.4%. The remaining at 0.5 h stood at 10% in series [4] and 5% in series [6]. Further, the fraction unbound in series [5] was found to be 0.42; in series [7] it was 0.32. This compound also gave an IC50 in series [8] of 44 nM. Moreover, in [9], the half-life is 1.8 h. For the same compound, the clearance in series [10] came out at 163 mL/min/kg.
As to `Cc1cc(C2CCN(C(=O)[C@@H]3CN(C(C)(C)C)C[C@H]3c3ccc(F)cc3F)CC2)n(-c2ccc(F)cc2F)n1`, the Ki in [11] was determined as 14.5 nM; in series [12] it was 5.2 nM; in [13] it was 7.5 nM. The Vd in [1] was 14 L/kg. Besides, the AUC/dose in series [2] is 0.26 µM·kg·h/mg. In [3], this compound registered a bioavailability of 54%. The compound also returned an IC50 in series [8] of 12 nM. Moreover, the half-life in series [9] is 2.5 h. The compound further returned a clearance in [10] of 63 mL/min/kg.
Turning to `Cc1cc(C2CCN(C(=O)[C@@H]3CN(C(C)(C)C)C[C@H]3c3ccc(F)cc3F)CC2)n(-c2cccc(Cl)c2)n1`, half-maximal inhibition in series [8] (IC50) was put at 13 nM.
Regarding `Cc1nc(C2CCN(C(=O)[C@@H]3CNC[C@H]3c3ccc(F)cc3F)CC2)n(-c2cc(Cl)ccc2Cl)n1`, the remaining at 0.5 h in [4] was determined as 56%; in series [6] it was 58%. In series [8], this compound yielded an IC50 of 30 nM.
As for `Cc1nc(C2CCN(C(=O)[C@@H]3CN(C(C)(C)C)C[C@H]3c3ccc(F)cc3F)CC2)n(-c2ccc(F)c(F)c2)n1`, the results for the remaining at 0.5 h in series [4] and in series [6] were 47% and 57%, respectively. Besides, the fraction unbound in series [5] stood at 0.54; in [7], 0.7. In series [8], this compound showed an IC50 of 34 nM.
`Cc1cc(-n2nc(C3CCN(C(=O)[C@@H]4CN(C(C)(C)C)C[C@H]4c4ccc(F)cc4F)CC3)nc2C)ccc1Cl`: the Vd in series [1] is 14 L/kg. Also, in series [2], the AUC/dose was determined as 0.05 µM·kg·h/mg. The same compound registered a bioavailability in [3] of 18%. Besides, the remaining at 0.5 h amounted to 36% in series [4] and 6% in [6]. Moreover, the results for the fraction unbound in series [5] and in [7] were 0.07 and 0.11, respectively. This compound yielded an IC50 in series [8] of 495 nM. Moreover, the half-life in [9] was 1.7 h. In series [10], this compound had a clearance of 111 mL/min/kg.
With `Cc1cc(C2CCN(C(=O)[C@@H]3CN(C(C)(C)C)C[C@H]3c3ccc(F)cc3F)CC2)n(-c2ccc(Cl)c(C)c2)n1`, in series [1], the Vd was 20 L/kg. Moreover, the AUC/dose in series [2] was 0.1 µM·kg·h/mg. In addition, the bioavailability in [3] was determined as 28%. For the same compound, the remaining at 0.5 h is 18% in [4] and 1% in series [6]. Besides, the fraction unbound came out at 0.06 in series [5] and 0.04 in series [7]. The same compound had an IC50 in series [8] of 2.9 nM. In addition, in series [9], the half-life is 3.1 h. This compound yielded a clearance in series [10] of 80 mL/min/kg.
In the case of `Cc1nc(C2CCN(C(=O)[C@@H]3CNC[C@H]3c3ccc(F)cc3F)CC2)n(-c2ccc(Cl)c(Cl)c2)n1`, the remaining at 0.5 h was 58% in series [4] and 59% in [6]. Also, half-maximal inhibition in series [8] (IC50) required 49 nM.
As to `Cc1cc(C2CCN(C(=O)[C@@H]3CN(C(C)(C)C)C[C@H]3c3ccc(F)cc3F)CC2)n(-c2ccc(Cl)c(F)c2)n1`, the Ki in series [11] was 25.1 nM; in series [12], 3.6 nM; in series [13] it was 8.9 nM. 4.8 nM corresponded to half-maximal inhibition in series [8] (IC50).
`Cc1cc(C2CCN(C(=O)[C@@H]3CN(C(C)(C)C)C[C@H]3c3ccc(F)cc3F)CC2)n(-c2ccc(Cl)cc2)n1`: the Vd in series [1] came to 14 L/kg. The same compound came in with an AUC/dose in [2] of 0.24 µM·kg·h/mg. The compound also had a bioavailability in series [3] of 29%. For the same compound, the remaining at 0.5 h in series [4] is 37%; in series [6], 28%. Further, the fraction unbound is 0.17 in [5] and 0.11 in series [7]. Besides, the IC50 in series [8] turned out to be 3.5 nM. In addition, the half-life in series [9] is 3.9 h. This compound also registered a clearance in series [10] of 41 mL/min/kg.
Turning to `Cc1cc(C2CCN(C(=O)[C@@H]3CNC[C@H]3c3ccc(F)cc3F)CC2)n(-c2ccc(Cl)c(Cl)c2)n1`, the figures for the Ki in [11], in series [12] and in [13] were 164 nM, 19.6 nM and 55.7 nM, respectively. Besides, the IC50 in series [8] worked out at 15 nM.
As to `Cc1cc(C2CCN(C(=O)[C@@H]3CNC[C@H]3c3ccc(F)cc3F)CC2)n(-c2ccc(F)c(Cl)c2)n1`, the Ki in series [11] was found to be 54.5 nM; in series [12] it was 8.3 nM; in series [13] it was 19.9 nM. In series [8], this compound had an IC50 of 8 nM.
With `Cc1cc(C2CCN(C(=O)[C@@H]3CN(C(C)(C)C)C[C@H]3c3ccc(F)cc3F)CC2)n(-c2cc(Cl)ccc2F)n1`, the Ki in [11] came out at 2.8 nM; in series [12], 1.2 nM; in series [13] it was 1.6 nM. Moreover, the remaining at 0.5 h in [4] amounted to 37%; in series [6], 34%. Moreover, the unbound share (fraction unbound) is 0.09 in series [5] and 0.14 in series [7]. The same compound yielded an IC50 in series [8] of 1.4 nM.
The compound `Cc1cc(C2CCN(C(=O)[C@@H]3CN(C(C)(C)C)C[C@H]3c3ccc(F)cc3F)CC2)n(-c2cc(F)ccc2Cl)n1` came in with an IC50 in [8] of 8.6 nM.
